# Results taken from PubChem BioAssay (NCI).
#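 In this assay, cells in 96-well plates receive the compound at five concentrations for 48 hours. Endpoints are linearly interpolated between the surrounding concentrations. GI50 marks 50% less growth. TGI: total growth inhibition.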
# Test system: HCT-116 colon
# Test: NCI tumour cell line growth inhibition, 48 h
row,Compound,TGI [µM]
1,CCOc1ccc(NC(=O)CC2SC(=Nc3ccc(C)cc3C)NC2=O)cc1 (stereo not given),> 100
2,Oc1oc(C(=C2N=c3ccccc3=N2)c2ccc(Cl)cc2)c(O)c1-c1ccc(Cl)cc1,9.14
3,Cc1nc2c(N)ncnc2o1,> 100
4,O=C1C/C(Br)=C\c2ccccc2-c2ccccc21,3.71
5,CCCCCCCCCCCC[N+]12CC[N+](CCN)(CC1)CC2,> 100
6,O=c1[nH]c(=O)n(C2CC(O)C(CO)O2)cc1OS(=O)(=O)C(F)(F)F (stereo not given),> 100
7,O=C1C=C(Nc2ccc(Cl)cc2C(=O)c2ccccc2)c2ccccc2C1=O,> 100
8,CC[C@@H]1NC(C(=O)OC)Cc2c1[nH]c1ccccc21 (stereo not given in full),> 100
9,O=C1C=C(c2c(O)ccc3ccccc23)c2cc(O)ccc2C1=O,30.1
10,Cc1cc(C)nc(NS(=O)(=O)c2ccc(Nc3c4ccccc4nc4c(C(=O)N5CCN(CCO)CC5)cccc34)cc2)n1,> 100
11,CC1=C(C(=O)Nc2ccccc2)C(c2ccc(Cl)c(Cl)c2)C(C(=O)Nc2ccccc2)=C(C)N1,22.3
12,COc1ccc(NC(=O)CSc2nnc(-c3ccc(NC(C)=O)cc3)o2)cc1,29.4
13,CC(=O)N/C(=C\c1ccccc1/C=C(\NC(C)=O)c1nc2cc(C)c(C)cc2[nH]1)c1nc2cc(C)c(C)cc2[nH]1,88.2
14,CC12c3ccccc3C(OC=O)(c3ccccc31)C1(C)c3ccccc3C2(OC=O)c2ccccc21,> 100
15,CCOC(=O)Cc1csc(Nc2ccccc2[N+](=O)[O-])n1,> 100

# Test system: HCC-2998 colon
# Test: NCI tumour cell line growth inhibition, 48 h
Compound,TGI [µM],GI50 [µM]
O=Cc1cc2c(cc1-c1cc3c(cc1C=O)OCO3)OCO2,> 100,–
C/C(=N\NC(N)=O)c1sc(-c2nc(C)c(/C(C)=N/NC(N)=O)s2)nc1C,> 100,–
CN(C)CCNC(=O)Cc1ccccc1Nc1c(Cl)cccc1Cl,24.7,–
O/N=C1\CCCCC1C(NO)c1ccccc1 (stereo not given),> 100,–
C[N+](C)(C)CC(=O)N/N=C(/Cc1cc(=O)oc2cc(O)ccc12)C(=O)Nc1ccc(Cl)cc1,> 100,–
COC(=O)c1c2c(c(C)[n+]([O-])c1C)C(=O)C(NCc1ccc(Br)cc1)=CC2=O,4.83,1.88
O=S(=O)(OI(OI(OS(=O)(=O)C(F)(F)F)c1ccccc1)c1ccccc1)C(F)(F)F,> 100,–
FC(F)(F)c1ccc2nc(NCc3ccccc3)c(-c3ccccc3)nc2c1,> 100,–
Cc1cc2c(cc1C)[n+](=O)cc(C(=O)C/C(=N/NC(=S)NN)C(=O)Nc1cccc(C(F)(F)F)c1)n2[O-],> 100,–
COCOCCC#CCO,> 100,–
COc1cc(C[P+](c2ccccc2)(c2ccccc2)c2ccccc2)cc(OC)c1OC,> 100,–
CCCN(CCC)c1c([N+](=O)[O-])cc(C(=O)N(CC)CC)cc1[N+](=O)[O-],> 100,–
COC(=N)c1csc(C2OC(CO)C(O)C2O)n1 (stereo not given),> 100,–
CN1Nc2ccccc2CC1=O,> 100,–
CCOc1ccc(OCC(=O)O)c2c1CCCC2=O,> 100,–
Nc1c(S(=O)(=O)c2ccc(Cl)cc2)c2nc3ccccc3nc2n2ccnc12,> 100,–

Compound,TGI [µM],GI50 [µM]
CCCCCCCC(=O)OCC1OC(n2cc(F)c(=O)[nH]c2=O)C(N)C(OC(=O)CCCCCCC)C1O (stereo not given),35.3,–
CCOc1ccc(NC(=O)CC2SC(=Nc3ccc(C)cc3C)NC2=O)cc1 (stereo not given),> 100,–
Oc1oc(C(=C2N=c3ccccc3=N2)c2ccc(Cl)cc2)c(O)c1-c1ccc(Cl)cc1,20.8,–
Cc1nc2c(N)ncnc2o1,> 100,–
O=C1C/C(Br)=C\c2ccccc2-c2ccccc21,19.3,–
CCCCCCCCCCCC[N+]12CC[N+](CCN)(CC1)CC2,> 100,–
O=c1[nH]c(=O)n(C2CC(O)C(CO)O2)cc1OS(=O)(=O)C(F)(F)F (stereo not given),> 100,–
O=C1C=C(Nc2ccc(Cl)cc2C(=O)c2ccccc2)c2ccccc2C1=O,> 100,–
CC[C@@H]1NC(C(=O)OC)Cc2c1[nH]c1ccccc21 (stereo not given in full),> 100,–
O=C1C=C(c2c(O)ccc3ccccc23)c2cc(O)ccc2C1=O,33.6,–
O=C(c1ccc([N+](=O)[O-])cc1[N+](=O)[O-])N(/N=C/C=C/c1ccccc1)c1nnc(-c2ccccc2)c(-c2ccccc2)n1,> 100,–
Cc1cc(C)nc(NS(=O)(=O)c2ccc(Nc3c4ccccc4nc4c(C(=O)N5CCN(CCO)CC5)cccc34)cc2)n1,> 100,–
COc1ccc(NC(=O)CSc2nnc(-c3ccc(NC(C)=O)cc3)o2)cc1,35.4,–
CC12c3ccccc3C(OC=O)(c3ccccc31)C1(C)c3ccccc3C2(OC=O)c2ccccc21,> 100,–
CCOC(=O)Cc1csc(Nc2ccccc2[N+](=O)[O-])n1,> 100,–

# Test system: DU-145 prostate
# Test: NCI tumour cell line growth inhibition, 48 h
row,Compound,TGI [µM]
1,O=C(O)c1ccc(CNCc2ccccc2)cc1,> 100

# Test system: UACC-62 melanoma
# Test: NCI tumour cell line growth inhibition, 48 h
Compound,TGI [µM],GI50 [µM]
O=Cc1cc2c(cc1-c1cc3c(cc1C=O)OCO3)OCO2,> 100,–
C/C(=N\NC(N)=O)c1sc(-c2nc(C)c(/C(C)=N/NC(N)=O)s2)nc1C,> 100,–
CN(C)CCNC(=O)Cc1ccccc1Nc1c(Cl)cccc1Cl,33.3,–
O/N=C1\CCCCC1C(NO)c1ccccc1 (stereo not given),> 100,–
C[N+](C)(C)CC(=O)N/N=C(/Cc1cc(=O)oc2cc(O)ccc12)C(=O)Nc1ccc(Cl)cc1,> 100,–
COC(=O)c1c2c(c(C)[n+]([O-])c1C)C(=O)C(NCc1ccc(Br)cc1)=CC2=O,2.69,1.17
O=S(=O)(OI(OI(OS(=O)(=O)C(F)(F)F)c1ccccc1)c1ccccc1)C(F)(F)F,> 100,–
COc1cc(OC)c(OC)cc1/C=N/NC(=O)N/N=C/c1cc(OC)c(OC)cc1OC,> 100,–
O=C(O)c1ccc(CNCc2ccccc2)cc1,> 100,–
FC(F)(F)c1ccc2nc(NCc3ccccc3)c(-c3ccccc3)nc2c1,> 100,–
Cc1cc2c(cc1C)[n+](=O)cc(C(=O)C/C(=N/NC(=S)NN)C(=O)Nc1cccc(C(F)(F)F)c1)n2[O-],> 100,–
COCOCCC#CCO,> 100,–
COc1cc(C[P+](c2ccccc2)(c2ccccc2)c2ccccc2)cc(OC)c1OC,> 100,–
CCCN(CCC)c1c([N+](=O)[O-])cc(C(=O)N(CC)CC)cc1[N+](=O)[O-],69.1,–
COC(=N)c1csc(C2OC(CO)C(O)C2O)n1 (stereo not given),> 100,–
CN1Nc2ccccc2CC1=O,> 100,–
CCOc1ccc(OCC(=O)O)c2c1CCCC2=O,> 100,–
CCCCCCCC(=O)OCC1OC(n2cc(F)c(=O)[nH]c2=O)C(N)C(OC(=O)CCCCCCC)C1O (stereo not given),32.4,–
CCOc1ccc(NC(=O)CC2SC(=Nc3ccc(C)cc3C)NC2=O)cc1 (stereo not given),> 100,–
Oc1oc(C(=C2N=c3ccccc3=N2)c2ccc(Cl)cc2)c(O)c1-c1ccc(Cl)cc1,15.2,–
Cc1nc2c(N)ncnc2o1,> 100,–
O=C1C/C(Br)=C\c2ccccc2-c2ccccc21,5.09,–
CCCCCCCCCCCC[N+]12CC[N+](CCN)(CC1)CC2,> 100,–
O=c1[nH]c(=O)n(C2CC(O)C(CO)O2)cc1OS(=O)(=O)C(F)(F)F (stereo not given),> 100,–
O=C1C=C(Nc2ccc(Cl)cc2C(=O)c2ccccc2)c2ccccc2C1=O,> 100,–
CC[C@@H]1NC(C(=O)OC)Cc2c1[nH]c1ccccc21 (stereo not given in full),> 100,–
